{"source": "patent US20040023855A1", "about": "“Biologic modulations with nanoparticles” (priority 2002, published 2004)", "key": {"Galectin-3": {"molecular_target": "Galectin-3 (Homo sapiens, UniProt P17931)", "sequence (P17931 whole entry)": "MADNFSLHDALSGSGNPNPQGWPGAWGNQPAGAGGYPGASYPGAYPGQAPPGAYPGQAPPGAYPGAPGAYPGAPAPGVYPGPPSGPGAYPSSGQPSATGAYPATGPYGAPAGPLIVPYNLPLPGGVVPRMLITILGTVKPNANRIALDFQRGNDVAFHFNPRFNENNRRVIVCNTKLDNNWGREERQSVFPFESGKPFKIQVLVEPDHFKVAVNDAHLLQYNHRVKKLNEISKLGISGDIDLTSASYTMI", "details": "relative affinity, lactose on galectin-3 given as 1; cited from earlier work"}, "[1]": {"tested_on": "orthotopically implanted tumors derived from breast cancer cell line MDA-MB435", "experiment": "Orthotopic mouse model of human breast cancer", "assay_type": "in vivo, nude mice", "procedure": "The safety, plasma half-life, and efficacy of galectin-3C in an orthotopic mouse model of human breast cancer was evaluated. A recent feasibility study of the anticancer activity of recombinant human galectin-3 N-terminally truncated by exhaustive digestion with Clostridium histiolyticum collagenase type VII (Sigma; St. Louis, Mo.), (36, 75) in an orthotopic mouse model of metastatic breast cancer (22) produced promising results. The digestion produced a 143 amino acid residue polypeptide beginning with Gly-108. In treated animals the number of primary tumors that metastasized was less than controls by 3-fold (P=0.031), and the mean primary tumor volume of the treated animals was 61% less than the controls (P=0.009). The results provide compelling evidence that treatment with an N-terminally truncated form of galectin-3 could useful in treatment and prevention of cancer, especially metastatic cancer.\nOne example of the use in vivo of N-terminally truncated galectin-3 is as a potential therapeutic agent for breast cancer. It was determined that therapy with an N-terminally truncated form of galectin-3 is efficacious for inhibition of metastases. To this end, recombinant galectin-3 was produced and the N-terminally truncated galectin-3 was derived by collagenase enzyme digestion and affinity chromatography. Injected N-terminally truncated galectin-3 was detected by metabolic labeling with ^35S methionine prior to collagenase cleavage. […] Mice bearing orthotopically implanted tumors derived from breast cancer cell line MDA-MB435 were treated intramuscularly twice daily for 90 days with N-terminally truncated galectin-3 or a vehicle control. […] In a recent study at the end of the treatment period, the number of treated animals with primary tumors that metastasized was less than controls by 3-fold (P=0.031), and the mean primary tumor volume of the treated animals was 61% less than the controls (P=0.009). The results provide compelling evidence that treatment with an N-terminally truncated form of galectin-3 could useful in treatment and prevention of cancer, especially metastatic cancer. The truncated form of galectin-3 was efficacious in reducing metastases, and the tumor volumes and weights of primary tumors."}, "[2]": {"parameters": "species or system nude mice", "details": "mouse, in vivo, im"}, "[3]": {"experiment": "Maximum tolerated dose in nude mice", "assay_type": "in vivo", "details": "without overt adverse effects"}, "[4]": {"tested_on": "Alva-41 prostate carcinoma cells", "experiment": "In vitro growth inhibition (cytotoxicity) by cisplatin nanoparticles", "assay_type": "cell-based, human", "details": "at doses greater than 60 µg/ml", "procedure": "FIG. 3 is a graph showing the in vitro cytotoxicity of nanoparticles comprising cisplatin and various cell recognition components for Alva-41, human tumor cells derived from a prostate carcinoma metastasis; and\nCisplatin was nanoencapsulated into the various candidate tumor-binding agents as described previously and nanoparticles were compared for growth inhibition in a metastatic variant of Alva-41 prostate carcinoma cells and Ca-9-22. Formulas were tested in duplicate in two separate experiments. Results are illustrated for the prostate cell line in FIG. 3. Referring to FIG. 3, PEX-MMP-l/Cisplatin refers to s50 nanoparticles comprising cisplatin and the Recombinant Pex binding domain of membrane-associated Matrix Metalloproteinase-1 (see Bello et. al, Cancer Research (2001) 61: 8730-36); Tenascin/Cisplatin refers to s50 nanoparticles having tenascin and cisplatin, FN-PHSCN/Cisplatin refers to nanoparticles comprising the FN-PHSCN fragment and cisplatin, galectin-3/cisplatin refers to s50 nanoparticles comprising recombinant N-terminally truncated galectin-3 and cisplatin, hyaluronan/cisplatin refers to s50 nanoparticles comprising hyaluronan and cisplatin, and naked cisplatin refers to the addition of free cisplatin to the cell medium. In these experiments cells were plated at 5,000 per well and followed for 72 hours. […]"}, "Galectin-3C": {"molecular_target": "T1, Galectin-3C (Homo sapiens, UniProt P17931)", "T1 construct": "The digestion produced a 143 amino acid residue polypeptide beginning with Gly-108", "T1 sequence (P17931 108-250)": "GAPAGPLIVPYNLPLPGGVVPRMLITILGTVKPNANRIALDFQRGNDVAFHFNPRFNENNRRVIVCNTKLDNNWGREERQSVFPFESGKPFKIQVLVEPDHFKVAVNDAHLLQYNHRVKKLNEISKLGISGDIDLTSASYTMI", "details": "relative affinity, same scale as galectin-3 column; cited from earlier work"}, "[5]": {"tested_on": "dog-kidney epithelial cell line MDCK II (Madin-Darby Canine Kidney)", "details": "lactose-inhibitable, cited from earlier work"}, "[6]": {"details": "intramuscularly twice daily for 90 days"}}, "note": "Marks after values point to notes of the source that are not given here.", "data": [{"molecule": "CO[C@H]1O[C@H](CO)[C@H](O)[C@H](O[C@H]2O[C@H](CO)[C@H](O)[C@H](O)[C@H]2O)[C@H]1O", "note": "[Galα1→3GalαOme]", "values": [{"measurement": "Relative Carbohydrate Affinities, Galectin-3", "setting": "Galectin-3", "value": 0.2}]}, {"molecule": "Galβ1→3GlcNAc", "values": [{"measurement": "Relative Carbohydrate Affinities, Galectin-3", "setting": "Galectin-3", "value": 6.3}]}, {"molecule": "N-terminally truncated galectin-3: recombinant human galectin-3 truncated by collagenase digestion; 143 amino acid polypeptide beginning with Gly-108 (SEQ ID NO. 1)", "values": [{"measurement": "mean primary tumor volume less than the controls", "setting": "[1]; end of treatment period, P=0.009", "value": 61, "unit": "%"}, {"measurement": "number of treated animals with primary tumors that metastasized, less than controls", "setting": "[1]; end of treatment period, P=0.031", "value": 3, "unit": "fold"}, {"measurement": "mean tumor volumes compared with control mice", "setting": "[1]; [6]", "value": "statistically significantly less"}, {"measurement": "mean tumor weights compared with control mice", "setting": "[1]; [6]", "value": "statistically significantly less"}, {"measurement": "mice with lymph node metastases compared with control group", "setting": "[1]; [6]", "value": "fewer numbers of mice exhibited lymph node metastases"}, {"measurement": "pharmacokinetic elimination half-life", "setting": "[2]", "value": 4.56, "unit": "h"}, {"measurement": "maximum tolerated dose", "setting": "[3]", "value": "greater than 125 mg/kg"}]}, {"molecule": "Galβ1→4(Fucα1→3)GlcNAc [Galβ1→4(Fucα1→3)GlcNAc (LeX)]", "values": [{"measurement": "Relative Carbohydrate Affinities, Galectin-3", "setting": "Galectin-3", "value": "<0.02"}]}, {"molecule": "N.N.[Cl][Pt][Cl]", "note": "[free cisplatin, cisplatin]", "values": [{"measurement": "activity compared to the other nanocapsule formulations", "setting": "[4]", "value": "greatest activity"}]}, {"molecule": "Galβ1→4GlcNAc [Galβ1→4GlcNAc (LacNAc)]", "values": [{"measurement": "Relative Carbohydrate Affinities, Galectin-3", "setting": "Galectin-3", "value": 11.3}]}, {"molecule": "(LacNAc)2", "values": [{"measurement": "Relative Carbohydrate Affinities, Galectin-3C", "setting": "Galectin-3C", "value": 54}, {"measurement": "Relative Carbohydrate Affinities, Galectin-3", "setting": "Galectin-3", "value": "20*"}]}, {"molecule": "(LacNAc)5", "values": [{"measurement": "Relative Carbohydrate Affinities, Galectin-3C", "setting": "Galectin-3C", "value": 60.5}, {"measurement": "Relative Carbohydrate Affinities, Galectin-3", "setting": "Galectin-3", "value": 137}]}, {"molecule": "galectin-3: intact wild-type galectin-3, chimera type β-galactoside binding lectin (SEQ ID NO. 3)", "values": [{"measurement": "apically bound radiolabeled galectin-3 endocytosed", "setting": "[5]; Transwell chambers", "value": "more than 90%"}, {"measurement": "galectin-3 transcytosed", "setting": "[5]; after 120 min", "value": 20, "unit": "%"}]}]}
